The target in test [1] is Full-length (FL)-PRMT5-MEP50 enzyme complex (Homo sapiens (Human), UniProt O14744). The test is described as follows: PRMT5-MEP50 Enzyme Methylation Assay. On Enzyme Methylation Assay IC50 1: top concentration 100000 nM. It is filed as biochemical. The protocol:
PRMT5-MEP50 Enzyme Methylation Assay
PRMT5/MEP50 biochemical assay is a direct measurement of the methylation activity of the enzyme complex on a short peptide substrate derived from the N-terminus of H4 histone. The methylation experiment is performed with recombinant protein. The assessment of inhibitory effect (IC50) of small molecules is measured by the effectiveness of the compounds to inhibit this reaction.
To each well of a white ProxiPlus 384 well-plate, 100 nL of compound (1% DMSO in final assay volume of 10 μL) was dispensed, followed by the addition of 8 μL of 1× assay buffer (50 mM Bicine pH 8.0, 1 mM DTT, 0.004% Tween20, 0.01% BSA) containing 0.5 nM of Full-length (FL)-PRMT5-MEP50 enzyme complex (recombinant proteins from baculovirus-transfected Sf21 cells: FL-PRMT5; MW=[…] and FL-MEP50; MW=38614). Plates were sealed and placed in a 37° C. humidified chamber for 30 minutes pre-incubation with compounds. Subsequently, each reaction was initiated by the addition of 2 μL 1× assay buffer containing 75 nM biotinylated H4R3(Me1) peptide, and 15 μM S-(5′-Adenosyl)-L-Methionine Chloride (SAM). The final reaction in each well of 10 μL consists of 0.5 nM PRMT5-MEP50, 75 nM biotinylated-peptide, and 15 μM SAM. Methylation reactions were allowed to proceed for 150 minutes in a sealed plate at 37° C. Reactions were immediately quenched by the addition of 1 μL of 10% formic acid. Plates were then frozen and shipped to SAMDI™ Tech Inc. to determine the percent conversion from […]. IC50 values were determined by 7 parameters biphasic fit model plotting the percent product conversion vs. (Log10) compound concentrations.

The target of another test is PRMT5 (Homo sapiens (Human), UniProt O14744). Briefly: PRMT5 Cell Target Engagement (TE) Assay. The class given is cell-based. The note with it: treated 3 days, nuclear SDMA by high content imaging, top concentration 10000 nM. The text has this:
PRMT5 Cell Target Engagement (TE) Assay
The PRMT5 TE assay is a biomarker assay for identifying compounds that inhibit symmetric dimethylation of arginine (SDMA) of PRMT5 substrates. This assay detects symmetrically dimethylated nuclear proteins using high content imaging technology. Detection of the expression of symmetrically dimethylated nucleo proteins is through a mixture of primary rabbit monoclonal antibodies to SDMA (CST 13222), which in turn recognized by an Alexafluor 488 dye-conjugated anti-rabbit IgG secondary antibody. The IN Cell Analyzer 2200 measures nuclear Alexafluor 488 fluorescent dye intensity that is directly related to the level of expression of symmetrically dimethylated nuclear proteins at the single cell level. Nuclear AF488 dye intensities are compared to the mean value for DMSO treated cells […] to report percent of inhibition for each compound-treated well.
Each well of a BD falcon collagen coated black/clear bottom 384-well plate was seeded with 4000 MCF-7 cells and allowed to attach for 5 hours. Media from cell plate was removed at 0.5 mm above the bottom of the plate and replaced with 30 μL of fresh media containing 1.2× compounds in 0.1% DMSO. Cells were treated for 3 days in 37° C. CO2 incubator. On day 3, cells were fixed with Cytofix, permeablized with 0.4% Triton-X-100/Cytofix, and washed with D-PBS without Ca/Mg. Cells were blocked with Licor Odessey blocking reagent for one hour at room temperature, followed by incubation with anti-SDMA (1:1000) antibody at 4° C. overnight. 1 antibody was removed, followed by three washings with DPBS without Ca/Mg and 0.05% Tween20. Hoechst (5 μg/ml), Cell Mask deep stain (1:2000) and Alexa488-conjugated goat anti-rabbit IgG (2 μg/mL) was added for 1 hour at room temperature. A final washing step (three washes) was performed before sealing plate for imaging on In Cell Analyzer 2200. Images from analyzer were uploaded to Columbus (at WP) for image analysis. IC50 values were determined by 4 parameters robust fit of percent fluorescence units vs. (Log10) compound concentrations.

[2] abbreviates: read-out: Enzyme Methylation Assay IC50_1.
The mark [3] stands for this setting: read-out: Enzyme Methylation Assay IC50_2.
Where [4] appears, read: MCF-7 cells, read-out: TE Assay EC50.

Like-named read-outs stand apart in the source and are kept apart here.

Chain of PRMT5 (O14744 whole entry): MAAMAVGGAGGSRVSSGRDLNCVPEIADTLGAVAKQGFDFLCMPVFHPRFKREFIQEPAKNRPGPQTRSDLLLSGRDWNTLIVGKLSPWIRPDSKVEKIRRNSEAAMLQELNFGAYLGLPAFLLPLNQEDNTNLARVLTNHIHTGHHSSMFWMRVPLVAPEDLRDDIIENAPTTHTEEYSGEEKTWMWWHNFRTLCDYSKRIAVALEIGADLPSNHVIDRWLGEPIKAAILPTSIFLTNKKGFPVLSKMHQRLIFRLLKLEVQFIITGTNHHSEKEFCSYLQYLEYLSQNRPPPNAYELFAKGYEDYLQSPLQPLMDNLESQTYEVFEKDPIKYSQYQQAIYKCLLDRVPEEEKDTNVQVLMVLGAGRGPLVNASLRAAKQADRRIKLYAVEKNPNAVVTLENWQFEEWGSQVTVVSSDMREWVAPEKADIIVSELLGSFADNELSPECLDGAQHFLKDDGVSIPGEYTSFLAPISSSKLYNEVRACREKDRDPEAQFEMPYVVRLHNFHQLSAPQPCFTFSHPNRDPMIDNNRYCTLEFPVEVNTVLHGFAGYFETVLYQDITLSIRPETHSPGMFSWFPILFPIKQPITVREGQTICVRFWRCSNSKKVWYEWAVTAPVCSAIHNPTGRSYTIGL
Chain of PRMT5 (Q9BQA1 whole entry partner): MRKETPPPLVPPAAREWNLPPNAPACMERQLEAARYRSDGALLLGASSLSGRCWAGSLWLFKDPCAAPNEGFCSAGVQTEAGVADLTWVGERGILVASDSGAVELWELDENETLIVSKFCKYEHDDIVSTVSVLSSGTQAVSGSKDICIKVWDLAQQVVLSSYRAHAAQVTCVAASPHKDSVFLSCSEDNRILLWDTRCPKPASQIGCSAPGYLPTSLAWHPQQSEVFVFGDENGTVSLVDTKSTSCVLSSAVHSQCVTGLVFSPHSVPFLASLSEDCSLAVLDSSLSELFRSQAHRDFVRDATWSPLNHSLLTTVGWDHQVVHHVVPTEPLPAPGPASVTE
Chain of Full-length (FL)-PRMT5-MEP50 enzyme complex (O14744 whole entry): as the sequence (O14744 whole entry) above
Chain of Full-length (FL)-PRMT5-MEP50 enzyme complex (Q9BQA1 whole entry partner): as the sequence (Q9BQA1 whole entry partner) above

With `CC1(C)CN(C[C@H](O)[C@@H]2Cc3ccccc3CN2)C(=O)c2ccc(Br)cc21` [Example 18, 6-bromo-2-((S)-2-hydroxy-2-((S)-1,2,3,4-tetrahydroisoquinolin-3-yl)ethyl)-4,4-dimethyl-3,4-dihydroisoquinolin-1(2H)-one], the figures for the IC50 in test [1] (setting [2]) and in test [1] (setting [3]) were 225 nM and no less than 100000 nM, respectively. Also, the EC50 on PRMT5 (setting [4]) was no less than 10000 nM.

For the molecule `CC[C@H]1CN(C[C@@H](O)[C@@H]2Cc3ccccc3CN2)C(=O)c2ccc(-c3ncnn3C)cc21` (single isomer, unassigned) [Example 7], the figures for the IC50 in test [1] (setting [2]) and in test [1] (setting [3]) were 0.31 nM and 313 nM, respectively. In addition, the EC50 on PRMT5 (setting [4]) worked out at 143 nM.

`CC[C@H]1CN(C[C@@H](O)[C@@H]2Cc3ccccc3CN2)C(=O)c2ccc(Br)cc21` (single isomer, unassigned) [Example 1]: the IC50 stood at 5.38 nM in test [1] (setting [2]) and 3740 nM in test [1] (setting [3]). The EC50 at PRMT5 (setting [4]) is 2860 nM.

`CCC1CN(CC(O)[C@@H]2Cc3ccccc3CN2)C(=O)c2ccc(C(=O)N3C4CCC3COC4)cc21` (stereo partly drawn) [Example 12, 4-ethyl-2-{2-hydroxy-2-[(3S)-1,2,3,4-tetrahydroisoquinolin-3-yl]ethyl}-6-(3-oxa-8-azabicyclo[3.2.1]oct-8-ylcarbonyl)-3,4-dihydroisoquinolin-1(2H)-one]: the results for the IC50 in test [1] (setting [2]) and in test [1] (setting [3]) were 0.63 nM and 253 nM, respectively. The EC50 at PRMT5 (TE Assay EC50, MCF-7 cells) is 29.8 nM.

With `CC[C@H]1CN(C[C@@H](O)[C@@H]2Cc3ccccc3CN2)C(=O)c2ccc(Br)cc21` (single isomer, unassigned) [Example 4], the figures for the IC50 in test [1] (setting [2]) and in test [1] (setting [3]) were 45.8 nM and 25800 nM, respectively. Moreover, on PRMT5 (setting [4]), the EC50 was no less than 10000 nM.

Turning to `O=C1c2ccc(-c3ncnn3C3CC3)cc2C2(CCC2)CN1C[C@@H](O)[C@@H]1Cc2ccccc2CN1` [Example 11, 6′-(1-cyclopropyl-1H-1,2,4-triazol-5-yl)-2′-{(2R)-2-hydroxy-2-[(3S)-1,2,3,4-tetrahydroisoquinolin-3-yl]ethyl}-2′,3′-dihydro-1′H-spiro[cyclobutane-1,4′-isoquinolin]-1′-one], the IC50 is 0.29 nM in test [1] (setting [2]) and 127 nM in test [1] (setting [3]). In addition, the EC50 at PRMT5 (setting [4]) came out at 17 nM.

In the case of `CO[C@@H]1C[C@H]2CC[C@@H](C1)N2C(=O)c1ccc2c(c1)C(C)(C)CN(C[C@@H](O)[C@@H]1Cc3ccccc3CN1)C2=O` [Example 25, 2-((R)-2-hydroxy-2-((S)-1,2,3,4-tetrahydroisoquinolin-3-yl)ethyl)-6-((1R,3S,5S)-3-methoxy-8-azabicyclo[3.2.1]octane-8-carbonyl)-4,4-dimethyl-3,4-dihydroisoquinolin-1(2H)-one], the results for the IC50 in test [1] (setting [2]) and in test [1] (setting [3]) were 0.44 nM and 50.1 nM, respectively. Moreover, the EC50 on PRMT5 (TE Assay EC50, MCF-7 cells) came to 3.81 nM.

Consider `CC[C@H]1CN(C[C@@H](O)[C@@H]2Cc3ccccc3CN2)C(=O)c2ccc(C(=O)N3C4CCC3COC4)cc21` (single isomer, unassigned) [Example 15], for which the results for the IC50 in test [1] (setting [2]) and in test [1] (setting [3]) were 9.54 nM and 3210 nM, respectively. Besides, the EC50 on PRMT5 (setting [4]) was 120 nM.

Regarding `CC1(C)CN(C[C@H](O)[C@@H]2Cc3ccccc3CN2)C(=O)c2ccc(C(=O)N3C4CCC3COC4)cc21` [Example 20, 6-(3-oxa-8-azabicyclo[3.2.1]octane-8-carbonyl)-2-((S)-2-hydroxy-2-((S)-1,2,3,4-tetrahydroisoquinolin-3-yl)ethyl)-4,4-dimethyl-3,4-dihydroisoquinolin-1(2H)-one], the IC50 worked out at 12.9 nM in test [1] (setting [2]) and 4070 nM in test [1] (setting [3]). Besides, the EC50 at PRMT5 (setting [4]) came to 153 nM.

As for `CC[C@H]1CN(C[C@@H](O)[C@@H]2Cc3ccccc3CN2)C(=O)c2ccc(C(=O)N3C4CCC3COC4)cc21` (single isomer, unassigned) [Example 13], the IC50 in test [1] (setting [2]) came to 0.36 nM; in test [1] (setting [3]), 270 nM. Besides, the EC50 at PRMT5 (TE Assay EC50, MCF-7 cells) came out at 30 nM.

In the case of `CC1(C)CN(C[C@H](O)[C@@H]2Cc3ccccc3CN2)C(=O)c2ccc(C(=O)N3[C@@H]4CC[C@H]3C[C@@H](O)C4)cc21` [Example 22, 2-((S)-2-hydroxy-2-((S)-1,2,3,4-tetrahydroisoquinolin-3-yl)ethyl)-6-((1R,3S,5S)-3-hydroxy-8-azabicyclo[3.2.1]octane-8-carbonyl)-4,4-dimethyl-3,4-dihydroisoquinolin-1(2H)-one], the IC50 in test [1] (setting [2]) amounted to 50.1 nM; in test [1] (setting [3]), 15300 nM. Moreover, on PRMT5 (setting [4]), the EC50 came out at 5280 nM.

On to `CC1(C)CN(C[C@@H](O)[C@@H]2Cc3ccccc3CN2)C(=O)c2ccc(C(=O)N3C4CCC3COC4)cc21` [Example 19, 6-(3-oxa-8-azabicyclo[3.2.1]octane-8-carbonyl)-2-((R)-2-hydroxy-2-((S)-1,2,3,4-tetrahydroisoquinolin-3-yl)ethyl)-4,4-dimethyl-3,4-dihydroisoquinolin-1(2H)-one], for which the IC50 was 0.53 nM in test [1] (setting [2]) and 138 nM in test [1] (setting [3]). In addition, at PRMT5 (TE Assay EC50, MCF-7 cells), the EC50 is 9.5 nM.
